Assay results reported in PubChem BioAssay AID1918941 (Molecular Pharmacology Branch, DTP, NCI, 2023).

Tested on: SW 1271 complex spheroids, viability
Assay: Anticancer human tumor SW 1271 cell line growth inhibition [LSD1];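 note: spheroids exposed to agents for 7 days before luminescence read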;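 for viability, T/C: 100% = DMSO vehicle control viability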
Conditions: for IC50: curve of first compound; for viability, T/C: stronger effect = lower value
Summary of the method: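 Complex spheroids of tumor cells with HUVEC and human MSCs, exposed to iadademstat combined with other agents. Each agent tested in half-log steps from near clinical Cmax (else 10 microM top), DMSO ≤0.25%.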

[1] = second compound 0.1 µM, first compound 0.00316 µM
[2] = second compound 0.1 µM, first compound 0.01 µM
[3] = second compound 0.1 µM, first compound 0.0316 µM
[4] = second compound 0.1 µM, first compound 0.1 µM
[5] = second compound 0.1 µM, first compound 0.316 µM
[6] = second compound 0.1 µM, first compound 1 µM
[7] = second compound 0.316 µM, first compound 0.00316 µM
[8] = second compound 0.316 µM, first compound 0.01 µM
[9] = second compound 0.316 µM, first compound 0.0316 µM
[10] = second compound 0.316 µM, first compound 0.1 µM
[11] = second compound 0.316 µM, first compound 0.316 µM
[12] = second compound 0.316 µM, first compound 1 µM
[13] = second compound 1 µM, first compound 0.00316 µM
[14] = second compound 1 µM, first compound 0.01 µM
[15] = second compound 1 µM, first compound 0.0316 µM
[16] = second compound 1 µM, first compound 0.1 µM
[17] = second compound 1 µM, first compound 0.316 µM
[18] = second compound 1 µM, first compound 1 µM
[19] = second compound 3.16 µM, first compound 0.00316 µM
[20] = second compound 3.16 µM, first compound 0.01 µM
[21] = second compound 3.16 µM, first compound 0.0316 µM
[22] = second compound 3.16 µM, first compound 0.1 µM
[23] = second compound 3.16 µM, first compound 0.316 µM
[24] = second compound 3.16 µM, first compound 1 µM
[25] = second compound 10 µM, first compound 0.00316 µM
[26] = second compound 10 µM, first compound 0.01 µM
[27] = second compound 10 µM, first compound 0.0316 µM
[28] = second compound 10 µM, first compound 0.1 µM
[29] = second compound 10 µM, first compound 0.316 µM
[30] = second compound 10 µM, first compound 1 µM

Question: `O=C(C=Cn1cnc(-c2cc(C(F)(F)F)cc(C(F)(F)F)c2)n1)NNc1cnccn1` + NC1CC1c1ccc(-c2cccc(O)c2)cc1 was tested. Which IC50 (second compound 0.1 µM) did it give?
Answer: 140 nM

Question: And the IC50 (second compound 0.316 µM)?
Answer: 148 nM

Question: And the IC50 (second compound 1 µM)?
Answer: 88.9 nM

Question: What about the IC50 (second compound 3.16 µM) of the same molecule?
Answer: 171 nM

Question: What about the IC50 (second compound 10 µM) of the same molecule?
Answer: 195 nM

Question: And the viability, T/C [1]?
Answer: 79%

Question: What about the viability, T/C [2] of the same molecule?
Answer: 70.9%

Question: What about the viability, T/C [3] of the same molecule?
Answer: 66.7%

Question: What about the viability, T/C [4] of the same molecule?
Answer: 49.3%

Question: What about the viability, T/C [5] of the same molecule?
Answer: 45.3%

Question: What about the viability, T/C [6] of the same molecule?
Answer: 21.6%

Question: And the viability, T/C [7]?
Answer: 68.7%

Question: What about the viability, T/C [8] of the same molecule?
Answer: 74.1%

Question: And the viability, T/C [9]?
Answer: 64.8%

Question: And the viability, T/C [10]?
Answer: 51.7%

Question: And the viability, T/C [11]?
Answer: 42%

Question: And the viability, T/C [12]?
Answer: 19.4%

Question: What about the viability, T/C [13] of the same molecule?
Answer: 73%

Question: And the viability, T/C [14]?
Answer: 64.1%

Question: And the viability, T/C [15]?
Answer: 69.5%

Question: And the viability, T/C [16]?
Answer: 41.3%

Question: What about the viability, T/C [17] of the same molecule?
Answer: 39.7%

Question: What about the viability, T/C [18] of the same molecule?
Answer: 23.7%

Question: What about the viability, T/C [19] of the same molecule?
Answer: 73.9%

Question: And the viability, T/C [20]?
Answer: 77.3%

Question: And the viability, T/C [21]?
Answer: 76.1%

Question: And the viability, T/C [22]?
Answer: 53.3%

Question: And the viability, T/C [23]?
Answer: 43.1%

Question: What about the viability, T/C [24] of the same molecule?
Answer: 23.4%

Question: And the viability, T/C [25]?
Answer: 71.2%

Question: And the viability, T/C [26]?
Answer: 73.6%

Question: And the viability, T/C [27]?
Answer: 68.1%

Question: What about the viability, T/C [28] of the same molecule?
Answer: 55.3%

Question: And the viability, T/C [29]?
Answer: 45.8%

Question: And the viability, T/C [30]?
Answer: 28%

Question: `COc1cc(C2c3cc4c(cc3C(OC3OC5COC(C)OC5C(O)C3O)C3COC(=O)C23)OCO4)cc(OC)c1O` (stereo not given) + NC1CCC(NC2CC2c2ccccc2)CC1 was tested. Which IC50 (second compound 0.1 µM) did it give?
Answer: 2660 nM

Question: And the IC50 (second compound 0.316 µM)?
Answer: > 3000 nM

Question: What about the IC50 (second compound 1 µM) of the same molecule?
Answer: > 3000 nM

Question: And the IC50 (second compound 3.16 µM)?
Answer: > 3000 nM

Question: And the IC50 (second compound 10 µM)?
Answer: > 3000 nM

Question: What about the viability, T/C (second compound 0.1 µM, first compound 0.00949 µM) of the same molecule?
Answer: 77%

Question: And the viability, T/C (second compound 0.1 µM, first compound 0.03 µM)?
Answer: 76.8%

Question: And the viability, T/C (second compound 0.1 µM, first compound 0.0949 µM)?
Answer: 80.5%

Question: And the viability, T/C (second compound 0.1 µM, first compound 0.3 µM)?
Answer: 68.9%

Question: What about the viability, T/C (second compound 0.1 µM, first compound 0.949 µM) of the same molecule?
Answer: 78.7%

Question: What about the viability, T/C (second compound 0.1 µM, first compound 3 µM) of the same molecule?
Answer: 47%

Question: And the viability, T/C (second compound 0.316 µM, first compound 0.00949 µM)?
Answer: 88.7%

Question: What about the viability, T/C (second compound 0.316 µM, first compound 0.03 µM) of the same molecule?
Answer: 94.4%

Question: And the viability, T/C (second compound 0.316 µM, first compound 0.0949 µM)?
Answer: 75%

Question: And the viability, T/C (second compound 0.316 µM, first compound 0.3 µM)?
Answer: 66.7%

Question: What about the viability, T/C (second compound 0.316 µM, first compound 0.949 µM) of the same molecule?
Answer: 58.4%

Question: And the viability, T/C (second compound 0.316 µM, first compound 3 µM)?
Answer: 64.1%

Question: And the viability, T/C (second compound 1 µM, first compound 0.00949 µM)?
Answer: 80.2%

Question: What about the viability, T/C (second compound 1 µM, first compound 0.03 µM) of the same molecule?
Answer: 80.2%

Question: And the viability, T/C (second compound 1 µM, first compound 0.0949 µM)?
Answer: 74.2%

Question: And the viability, T/C (second compound 1 µM, first compound 0.3 µM)?
Answer: 75%

Question: What about the viability, T/C (second compound 1 µM, first compound 0.949 µM) of the same molecule?
Answer: 66.7%

Question: And the viability, T/C (second compound 1 µM, first compound 3 µM)?
Answer: 56.9%

Question: What about the viability, T/C (second compound 3.16 µM, first compound 0.00949 µM) of the same molecule?
Answer: 95.7%

Question: And the viability, T/C (second compound 3.16 µM, first compound 0.03 µM)?
Answer: 70.9%

Question: And the viability, T/C (second compound 3.16 µM, first compound 0.0949 µM)?
Answer: 71.8%

Question: And the viability, T/C (second compound 3.16 µM, first compound 0.3 µM)?
Answer: 73.4%

Question: What about the viability, T/C (second compound 3.16 µM, first compound 0.949 µM) of the same molecule?
Answer: 58.9%

Question: What about the viability, T/C (second compound 3.16 µM, first compound 3 µM) of the same molecule?
Answer: 60.8%

Question: And the viability, T/C (second compound 10 µM, first compound 0.00949 µM)?
Answer: 77%

Question: And the viability, T/C (second compound 10 µM, first compound 0.03 µM)?
Answer: 80.9%

Question: And the viability, T/C (second compound 10 µM, first compound 0.0949 µM)?
Answer: 72.1%

Question: What about the viability, T/C (second compound 10 µM, first compound 0.3 µM) of the same molecule?
Answer: 72.2%

Question: And the viability, T/C (second compound 10 µM, first compound 0.949 µM)?
Answer: 58.4%

Question: What about the viability, T/C (second compound 10 µM, first compound 3 µM) of the same molecule?
Answer: 64.3%

Question: With `Nc1ncn(C2CC(O)C(CO)O2)c(=O)n1` (stereo not given) + NC1CCC(NC2CC2c2ccccc2)CC1 as the molecule, how does the IC50 (second compound 0.1 µM) read?
Answer: > 1000 nM

Question: What about the IC50 (second compound 0.316 µM) of the same molecule?
Answer: > 1000 nM

Question: What about the IC50 (second compound 1 µM) of the same molecule?
Answer: > 1000 nM

Question: What about the IC50 (second compound 3.16 µM) of the same molecule?
Answer: > 1000 nM

Question: And the IC50 (second compound 10 µM)?
Answer: > 1000 nM

Question: What about the viability, T/C [1] of the same molecule?
Answer: 83.6%

Question: And the viability, T/C [2]?
Answer: 95.2%

Question: What about the viability, T/C [3] of the same molecule?
Answer: 90%

Question: What about the viability, T/C [4] of the same molecule?
Answer: 74.5%

Question: And the viability, T/C [5]?
Answer: 86.5%

Question: And the viability, T/C [6]?
Answer: 81.3%

Question: And the viability, T/C [7]?
Answer: 91.3%

Question: And the viability, T/C [8]?
Answer: 82.6%

Question: What about the viability, T/C [9] of the same molecule?
Answer: 92.8%

Question: And the viability, T/C [10]?
Answer: 81.3%

Question: And the viability, T/C [11]?
Answer: 66.6%

Question: And the viability, T/C [12]?
Answer: 76.7%

Question: And the viability, T/C [13]?
Answer: 85.8%

Question: What about the viability, T/C [14] of the same molecule?
Answer: 81.2%

Question: And the viability, T/C [15]?
Answer: 75.9%

Question: What about the viability, T/C [16] of the same molecule?
Answer: 76.7%

Question: And the viability, T/C [17]?
Answer: 66.2%

Question: What about the viability, T/C [18] of the same molecule?
Answer: 72.4%

Question: What about the viability, T/C [19] of the same molecule?
Answer: 82.3%

Question: And the viability, T/C [20]?
Answer: 93.9%

Question: What about the viability, T/C [21] of the same molecule?
Answer: 74.1%

Question: What about the viability, T/C [22] of the same molecule?
Answer: 80.6%

Question: What about the viability, T/C [23] of the same molecule?
Answer: 66.5%

Question: And the viability, T/C [24]?
Answer: 77.2%

Question: And the viability, T/C [25]?
Answer: 95.7%

Question: And the viability, T/C [26]?
Answer: 89.9%

Question: And the viability, T/C [27]?
Answer: 84.8%

Question: And the viability, T/C [28]?
Answer: 81.8%

Question: What about the viability, T/C [29] of the same molecule?
Answer: 81.3%

Question: And the viability, T/C [30]?
Answer: 91.1%
